Laboratory results published in patent publication US8809386B2, “Use of dynamin ring stabilizers” (Children's Medical Research Institute, priority 2009, dated 2014).

Columns and labels:
[1] = target: T1, full length dynamin I (UniProt Q05193); assay: Basal dynamin GTPase activity in the absence of PS liposomes or other template (ring stabilizer activity); assay type: biochemical, sheep; conditions: 0.2 μM dyn1, 7 μM compound, 10 μM Gsn-F-actin complexes, FIG. 18
T1 construct: rows headed: basal rate of GTP hydrolysis of dynamin
T1 sequence (Q05193 1-864): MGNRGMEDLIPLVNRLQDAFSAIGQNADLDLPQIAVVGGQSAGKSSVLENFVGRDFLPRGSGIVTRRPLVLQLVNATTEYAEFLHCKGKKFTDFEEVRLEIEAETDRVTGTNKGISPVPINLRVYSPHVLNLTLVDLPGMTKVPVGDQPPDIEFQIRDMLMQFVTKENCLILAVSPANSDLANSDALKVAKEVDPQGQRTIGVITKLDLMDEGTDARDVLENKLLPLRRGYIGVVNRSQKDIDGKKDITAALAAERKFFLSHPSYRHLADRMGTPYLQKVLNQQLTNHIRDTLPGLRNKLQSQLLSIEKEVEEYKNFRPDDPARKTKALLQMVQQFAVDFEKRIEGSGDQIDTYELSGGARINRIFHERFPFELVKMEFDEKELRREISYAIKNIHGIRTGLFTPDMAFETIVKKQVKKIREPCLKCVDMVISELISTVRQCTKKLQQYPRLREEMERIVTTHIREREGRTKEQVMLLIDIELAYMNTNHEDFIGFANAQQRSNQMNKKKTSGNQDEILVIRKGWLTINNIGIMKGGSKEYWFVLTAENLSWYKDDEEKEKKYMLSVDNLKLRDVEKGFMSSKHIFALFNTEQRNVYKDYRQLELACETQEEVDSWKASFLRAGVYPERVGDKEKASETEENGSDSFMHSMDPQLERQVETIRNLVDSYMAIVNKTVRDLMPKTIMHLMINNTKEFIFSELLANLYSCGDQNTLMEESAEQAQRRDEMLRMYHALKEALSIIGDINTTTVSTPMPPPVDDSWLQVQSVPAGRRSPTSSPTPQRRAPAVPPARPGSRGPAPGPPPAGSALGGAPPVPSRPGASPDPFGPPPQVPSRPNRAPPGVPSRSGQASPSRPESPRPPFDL

[2] = test system: endocytosis; assay: Endocytosis in cells (data not shown); assay type: cell-based
Procedure: To determine if the in vitro action of the dynamin ring stabilizers also occurs in cells, the effect of Bis-T-23 on the actin cytoskeleton in cultured mouse podocytes was tested (FIG. 19). […] Thus, the observed increase in stress fibers is unlikely due to inhibition of endocytosis.

## N#CC(=Cc1cc(O)c(O)c(O)c1)C(=O)NCCCNC(=O)C(C#N)=Cc1cc(O)c(O)c(O)c1 [Bis-T-23, 2-cyano-N-{3-[2-cyano-3-(3,4,5-trihydroxyphenyl)-acryloylamino]-propyl}-3-(3,4,5-trihydroxyphenyl)-acrylamide]
[1]
  basal rate of GTP hydrolysis of dynamin: increased the rate of basal dynamin GTP hydrolysis to a similar level to addition of Gsn-F-actin complexes
[2]
  endocytosis: inhibits endocytosis
